The source of these data is PubChem BioAssay (NCI).

Test systems include COLO 205 colon; HS 578T breast; SF-539 CNS; BT-549 breast; A498 renal; 786-0 renal; T-47D breast; DU-145 prostate; SW-620 colon; SNB-19 CNS.
Holding throughout (assay): NCI anticancer screen, dose series, 48 h

Each structure is given as a SMILES string.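 The compound was tested at five concentrations on cells cultured in 96-well plates, with a 48-hour exposure period. At the GI50, growth is halved. Definition used: TGI = concentration required for complete inhibition of growth.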 Where a SMILES comes first, the peptide text is derived from it. Bridges are numbered along the chain shown (N, C = ends). Roman numbers before positions name the chains, in order. [ ]: non-standard residue; d: D form. The star is where a group is joined. Heptadecanoyl = CCCCCCCCCCCCCCCCC(=O)*; Phg = N[CH](C(=O)O)c1ccccc1

As for `CCCC[Si](CCCC)(CCCC)O[C@@H](/C=C/C(=O)OCC)[C@H](Cc1ccccc1)O[Si](CCCC)(CCCC)CCCC`, the TGI in the experiment on COLO 205 colon, in the experiment with HS 578T breast, with SF-539 CNS, in the experiment with BT-549 breast, in the experiment with A498 renal and in the experiment on 786-0 renal was > 100 µM throughout. The TGI with T-47D breast, in the experiment on DU-145 prostate, in the experiment with SW-620 colon and in the experiment with SNB-19 CNS was > 100 µM each time.
On to `CCCCCCCCCCCCCCCCC(=O)N1CCCC1C(=O)NCC(=O)NC(C(=O)N1CCCC1C(=O)NC(CO)C(=O)NC(Cc1ccc(O)cc1)C(=O)NC(CCCCNC(=O)C1CCCN1C(=O)C(CCCCN)NC(=O)C(CCCCN)NC(=O)C(CCCCN)NC(=O)C(CCCNC(=N)N)NC(=O)C(CCCCN)NC(=O)C(N)C(C)C)C(=O)NC(CC(C)C)C(=O)NC(CCCNC(=N)N)C(=O)N1CCCC1C(=O)NCC(N)=O)c1ccccc1` (centres undefined) (I: Heptadecanoyl-PG[Phg]PSYKLRPG-NH2 / II: H-VKRKKKP; amide I:7-II:C; configuration not given here), for which the GI50 is 4.75 µM with COLO 205 colon; > 100 µM with HS 578T breast; 34.4 µM with SF-539 CNS; 36.5 µM in the experiment with BT-549 breast; 76.3 µM with A498 renal; 5.38 µM in the experiment on T-47D breast. Besides, the GI50 is 24.6 µM in the experiment on DU-145 prostate, 40.5 µM in the experiment with SW-620 colon and 31.2 µM with SNB-19 CNS. Moreover, the TGI is 18.4 µM in the experiment on COLO 205 colon; > 100 µM in the experiment on HS 578T breast; > 100 µM in the experiment on SF-539 CNS; 89.3 µM with BT-549 breast; > 100 µM with A498 renal; 70.7 µM with T-47D breast. Moreover, the TGI was 61.5 µM in the experiment on DU-145 prostate, > 100 µM in the experiment on SW-620 colon and 84.1 µM with SNB-19 CNS.
Turning to `C/C(=C\[C@H]1C[C@@H]([C@@H]2CC[C@]34C[C@]23C=C[C@@H]2[C@@]3(C)CC=C5C[C@@H](c6ccccc6)OC[C@]5(C)[C@@H]3C[C@@H](O)[C@]24C)C(=O)O1)CO`, the TGI is 5.11 µM in the experiment on COLO 205 colon; > 72.2 µM in the experiment on HS 578T breast; 35.1 µM with SF-539 CNS; 98.6 µM with BT-549 breast; 5.8 µM in the experiment with A498 renal; > 100 µM in the experiment with 786-0 renal. Also, the TGI with T-47D breast was > 100 µM; in the experiment with DU-145 prostate, > 67.9 µM; with SW-620 colon it was > 100 µM; with SNB-19 CNS, > 86.7 µM.
Regarding `Nc1nc(Cl)cc(NCC2(CO)CC(Cc3ccccc3)C2)n1` (centres undefined), the TGI in the experiment on COLO 205 colon was > 59.6 µM; in the experiment with HS 578T breast, > 100 µM; in the experiment on SF-539 CNS, > 100 µM; in the experiment with BT-549 breast, > 80.5 µM; in the experiment with A498 renal it was 78.7 µM; in the experiment on 786-0 renal it was > 100 µM. For the same compound, the TGI in the experiment on T-47D breast was > 65.4 µM; in the experiment with DU-145 prostate, > 100 µM; in the experiment with SW-620 colon, > 100 µM; with SNB-19 CNS, > 100 µM.
Regarding `CCOC(=O)C(SCCO)C(C(=O)OCC)n1cc(C)c(=O)[nH]c1=O` (centres undefined), the TGI is 23.3 µM in the experiment with COLO 205 colon; > 100 µM with HS 578T breast; > 65.3 µM in the experiment on SF-539 CNS; > 85.1 µM with BT-549 breast; 47.5 µM in the experiment on A498 renal; 15.6 µM in the experiment on 786-0 renal. Besides, the TGI was > 100 µM in the experiment on T-47D breast, > 100 µM with DU-145 prostate, > 43.1 µM with SW-620 colon and > 100 µM in the experiment with SNB-19 CNS.
In the case of `N=C(N)c1ccc(-c2ccc(-c3ccc(C(=N)N)cc3)o2)cc1`, the TGI in the experiment with COLO 205 colon is 43.2 µM; in the experiment with HS 578T breast it was 56.9 µM; in the experiment on SF-539 CNS it was > 100 µM; with BT-549 breast, > 100 µM; in the experiment with A498 renal, > 100 µM; with 786-0 renal, 59.7 µM. Further, the TGI with T-47D breast is 74.9 µM; with DU-145 prostate, > 100 µM; in the experiment with SW-620 colon, > 100 µM; in the experiment on SNB-19 CNS it was > 100 µM.
As for `CC(C)=CCC/C(C)=C/CC/C(C)=C/CC/C(C=O)=C/CC/C(C)=C\CC/C(C)=C/CC/C(C)=C/CC/C(C)=C/CC1=CC(=O)C=CC1=O`, the TGI was > 100 µM in the experiment on COLO 205 colon; > 100 µM in the experiment on HS 578T breast; > 100 µM in the experiment with BT-549 breast; > 100 µM in the experiment on A498 renal; > 100 µM in the experiment with 786-0 renal; 69.4 µM in the experiment on T-47D breast. Moreover, the TGI with DU-145 prostate, with SW-620 colon and in the experiment on SNB-19 CNS was > 100 µM each time.
Consider `COC(=O)c1cc(/C=C2\Cc3cc4c(cc3C2=O)CCC4)cc2c1CCC2`, for which the TGI in the experiment on COLO 205 colon, in the experiment on HS 578T breast, in the experiment with SF-539 CNS, in the experiment with BT-549 breast, in the experiment on A498 renal and in the experiment on 786-0 renal was > 100 µM throughout. Also, the TGI in the experiment on T-47D breast, with DU-145 prostate, in the experiment with SW-620 colon and with SNB-19 CNS was > 100 µM in each case.
For the compound `Cc1ccc(S(=O)(=O)N/N=C2/CC[C@H](C(C)(C)C)C[C@@H]2C)cc1`, the TGI in the experiment on COLO 205 colon was 35.4 µM; in the experiment with HS 578T breast, 45.1 µM; with SF-539 CNS, 32.5 µM; in the experiment on BT-549 breast it was 29.8 µM; with A498 renal, 31.6 µM; in the experiment with 786-0 renal, 31.8 µM. For the same compound, the TGI was 25.5 µM in the experiment with T-47D breast, 30.3 µM in the experiment on DU-145 prostate, 50.7 µM in the experiment on SW-620 colon and 32.6 µM with SNB-19 CNS.
On to `Cn1c(=O)c2c(nc3sc4ncccc4c(=O)n32)n(C)c1=O`, for which the TGI with COLO 205 colon, in the experiment with HS 578T breast, in the experiment on SF-539 CNS, with BT-549 breast, in the experiment on A498 renal and with 786-0 renal was > 100 µM each time. Besides, the TGI in the experiment with T-47D breast, in the experiment on DU-145 prostate, in the experiment on SW-620 colon and with SNB-19 CNS was > 100 µM throughout.
Turning to `CC1(C)OC([C@H](O)CO)C([C@H]2NCCS2)O1` (some centres undefined), the TGI in the experiment on COLO 205 colon, with HS 578T breast, in the experiment on BT-549 breast, in the experiment on A498 renal, with 786-0 renal and in the experiment with T-47D breast was > 100 µM each time. The TGI in the experiment with DU-145 prostate, in the experiment on SW-620 colon and in the experiment with SNB-19 CNS was > 100 µM each time.
Take `O=C1c2cccnc2-c2nccc3ccnc1c23`: the TGI in the experiment on COLO 205 colon was 1.12 µM; in the experiment with HS 578T breast it was > 28.3 µM; in the experiment on SF-539 CNS it was 4.81 µM; with BT-549 breast, 2.78 µM; in the experiment on A498 renal, 13 µM; with 786-0 renal it was 2.04 µM. Besides, the TGI in the experiment on T-47D breast stood at 1.77 µM; in the experiment on DU-145 prostate it was 2.65 µM; with SW-620 colon, 1.78 µM; in the experiment with SNB-19 CNS it was 10.9 µM.
As to `CC(=O)OCC(OC(C)=O)C(OC(C)=O)C(OC(C)=O)C(/C=N\Nc1nc2ccccc2c(=O)[nH]1)OC(C)=O` (centres undefined), the TGI with COLO 205 colon, with HS 578T breast, in the experiment with SF-539 CNS, in the experiment on BT-549 breast, in the experiment with 786-0 renal and with T-47D breast was > 100 µM throughout. The TGI in the experiment with DU-145 prostate, with SW-620 colon and in the experiment on SNB-19 CNS was > 100 µM in each case.
On to `C=C1C(=O)O[C@H]2[C@H]3O[C@@H](C[C@@H]12)[C@](C)(O)CCCC(C)=CCC[C@H]3C`, for which the TGI is 21 µM with COLO 205 colon; 29.2 µM in the experiment with HS 578T breast; 26.9 µM with SF-539 CNS; 3.07 µM with BT-549 breast; > 100 µM in the experiment on 786-0 renal; 44.6 µM in the experiment with T-47D breast. The TGI with DU-145 prostate is 39.6 µM; in the experiment with SW-620 colon it was 23 µM; with SNB-19 CNS it was 32.4 µM.
In the case of `O=C(CN1CCCC1)Nc1ccc2sc3ccccc3c(=O)c2n1`, the TGI with COLO 205 colon is 44.8 µM; in the experiment on HS 578T breast, 52.1 µM; in the experiment with SF-539 CNS, 35.3 µM; with BT-549 breast it was 70 µM; with 786-0 renal it was 48.1 µM; in the experiment on T-47D breast, > 100 µM. The TGI was > 100 µM in the experiment with DU-145 prostate, 33.6 µM in the experiment on SW-620 colon and > 100 µM in the experiment with SNB-19 CNS.
Regarding `O=C1C(c2c(O)[nH]c3ccc(S(=O)(=O)N(CCO)CCO)cc23)=Nc2ccccc21`, the TGI in the experiment on COLO 205 colon is > 100 µM; in the experiment with HS 578T breast, > 100 µM; in the experiment with BT-549 breast it was > 100 µM; in the experiment on A498 renal, > 100 µM; in the experiment with 786-0 renal it was > 100 µM; in the experiment on T-47D breast, 20.3 µM. The TGI in the experiment with DU-145 prostate is 72.3 µM; in the experiment on SW-620 colon, > 100 µM; in the experiment on SNB-19 CNS, > 100 µM.
`CC1(c2nc3cc(Cl)c(Cl)cc3[nH]2)CCC(C(=O)O)C(C)(C)O1` (centres undefined): the TGI with COLO 205 colon, in the experiment with HS 578T breast, with SF-539 CNS, in the experiment on BT-549 breast, with 786-0 renal and with T-47D breast was > 100 µM each time. In addition, the TGI with DU-145 prostate, in the experiment with SW-620 colon and in the experiment on SNB-19 CNS was > 100 µM throughout.
For the compound `Nc1nc(Cl)nc2c1ncn2C1CCC(CO)O1` (centres undefined), the TGI in the experiment on COLO 205 colon, in the experiment with HS 578T breast, in the experiment on BT-549 breast, in the experiment on A498 renal, with T-47D breast and in the experiment on DU-145 prostate was > 100 µM throughout. The TGI in the experiment with SW-620 colon and in the experiment with SNB-19 CNS was > 100 µM in each case.
